Data reported in article PMC9329436, “Optimization of the 4-anilinoquin(az)oline scaffold as epidermal growth factor receptor (EGFR) inhibitors for chordoma utilizing a toxicology profiling assay platform” (Scientific Reports, 2022).
Like-named read-outs stand apart in the source and are kept apart here.

How the values were obtained:
Assay type in all cases: biochemical
[1] = target: 320 wild-type protein kinases (Homo sapiens, UniProt P48729); settings: singlicate
Description: (§1) Table S4. Profiling of two compounds at two concentrations against 320 wild-type protein kinases; singlicate measurement; Residual activities (% of control).

[2] = target: T1, 320 wild-type protein kinases (Homo sapiens, UniProt Q96PY6); settings: singlicate
T1 sequence (Q96PY6 1-1258): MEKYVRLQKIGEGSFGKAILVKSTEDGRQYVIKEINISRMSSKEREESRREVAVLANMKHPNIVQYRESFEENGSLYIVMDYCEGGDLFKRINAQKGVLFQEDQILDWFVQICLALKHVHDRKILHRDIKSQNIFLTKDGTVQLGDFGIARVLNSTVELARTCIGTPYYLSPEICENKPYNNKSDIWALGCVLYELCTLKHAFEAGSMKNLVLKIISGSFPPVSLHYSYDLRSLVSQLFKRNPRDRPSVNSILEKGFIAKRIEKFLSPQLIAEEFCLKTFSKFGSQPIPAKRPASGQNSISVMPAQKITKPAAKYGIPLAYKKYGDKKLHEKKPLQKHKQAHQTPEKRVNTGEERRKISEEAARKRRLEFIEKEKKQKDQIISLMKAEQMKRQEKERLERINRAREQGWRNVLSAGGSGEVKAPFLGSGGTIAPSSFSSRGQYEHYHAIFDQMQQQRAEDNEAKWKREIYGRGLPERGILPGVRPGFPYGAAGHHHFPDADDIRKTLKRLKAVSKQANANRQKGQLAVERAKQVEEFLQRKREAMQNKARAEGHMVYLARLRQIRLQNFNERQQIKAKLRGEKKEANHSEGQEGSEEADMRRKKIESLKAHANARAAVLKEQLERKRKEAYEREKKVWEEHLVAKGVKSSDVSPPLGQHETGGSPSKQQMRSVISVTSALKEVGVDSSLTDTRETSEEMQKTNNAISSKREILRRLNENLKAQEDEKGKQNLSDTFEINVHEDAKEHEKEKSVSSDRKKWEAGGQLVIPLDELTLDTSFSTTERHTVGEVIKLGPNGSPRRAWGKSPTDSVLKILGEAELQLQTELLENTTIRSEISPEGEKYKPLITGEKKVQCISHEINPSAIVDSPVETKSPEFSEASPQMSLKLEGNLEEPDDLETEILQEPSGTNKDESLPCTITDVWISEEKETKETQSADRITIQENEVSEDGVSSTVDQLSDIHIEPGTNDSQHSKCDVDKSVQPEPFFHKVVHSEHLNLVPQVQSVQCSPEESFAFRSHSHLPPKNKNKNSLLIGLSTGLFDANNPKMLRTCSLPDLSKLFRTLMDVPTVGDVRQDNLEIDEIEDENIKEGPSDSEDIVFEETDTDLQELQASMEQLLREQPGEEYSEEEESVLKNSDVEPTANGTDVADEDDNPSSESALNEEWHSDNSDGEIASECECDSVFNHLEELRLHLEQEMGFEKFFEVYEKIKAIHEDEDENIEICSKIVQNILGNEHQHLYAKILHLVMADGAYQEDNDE
Description: as §1

[3] = target: 320 wild-type protein kinases (Homo sapiens, UniProt P05129); settings: PKC-gamma, singlicate
Description: as §1

[4] = target: 320 wild-type protein kinases (Homo sapiens, UniProt O00506); settings: kinase STK25, singlicate
Description: as §1

[5] = target: 320 wild-type protein kinases (Homo sapiens, UniProt Q9NQU5); settings: singlicate
Description: as §1

[6] = target: 320 wild-type protein kinases (Homo sapiens, UniProt P00519); settings: singlicate
Description: as §1

[7] = target: 320 wild-type protein kinases (Homo sapiens, UniProt Q16539); settings: p38-alpha, singlicate
Description: as §1

[8] = target: T2, 320 wild-type protein kinases (Homo sapiens, UniProt Q9NR20); settings: singlicate
T2 sequence (Q9NR20 1-520): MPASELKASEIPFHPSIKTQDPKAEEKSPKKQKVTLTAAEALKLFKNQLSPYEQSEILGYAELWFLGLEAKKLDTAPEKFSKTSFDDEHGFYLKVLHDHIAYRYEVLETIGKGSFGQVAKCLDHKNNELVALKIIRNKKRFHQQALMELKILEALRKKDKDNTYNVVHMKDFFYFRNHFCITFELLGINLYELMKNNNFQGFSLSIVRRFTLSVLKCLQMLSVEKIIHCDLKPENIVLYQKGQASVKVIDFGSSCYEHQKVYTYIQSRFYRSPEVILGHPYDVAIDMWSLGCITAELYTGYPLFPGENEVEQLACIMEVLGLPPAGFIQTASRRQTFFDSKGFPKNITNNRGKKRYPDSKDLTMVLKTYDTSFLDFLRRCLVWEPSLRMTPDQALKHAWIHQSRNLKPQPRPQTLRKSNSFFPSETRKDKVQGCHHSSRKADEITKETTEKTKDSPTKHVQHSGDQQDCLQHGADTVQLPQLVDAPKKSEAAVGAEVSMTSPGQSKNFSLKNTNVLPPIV
Description: as §1

Chain of 320 wild-type protein kinases (Homo sapiens, UniProt Q9NQU5) (Q9NQU5 whole entry): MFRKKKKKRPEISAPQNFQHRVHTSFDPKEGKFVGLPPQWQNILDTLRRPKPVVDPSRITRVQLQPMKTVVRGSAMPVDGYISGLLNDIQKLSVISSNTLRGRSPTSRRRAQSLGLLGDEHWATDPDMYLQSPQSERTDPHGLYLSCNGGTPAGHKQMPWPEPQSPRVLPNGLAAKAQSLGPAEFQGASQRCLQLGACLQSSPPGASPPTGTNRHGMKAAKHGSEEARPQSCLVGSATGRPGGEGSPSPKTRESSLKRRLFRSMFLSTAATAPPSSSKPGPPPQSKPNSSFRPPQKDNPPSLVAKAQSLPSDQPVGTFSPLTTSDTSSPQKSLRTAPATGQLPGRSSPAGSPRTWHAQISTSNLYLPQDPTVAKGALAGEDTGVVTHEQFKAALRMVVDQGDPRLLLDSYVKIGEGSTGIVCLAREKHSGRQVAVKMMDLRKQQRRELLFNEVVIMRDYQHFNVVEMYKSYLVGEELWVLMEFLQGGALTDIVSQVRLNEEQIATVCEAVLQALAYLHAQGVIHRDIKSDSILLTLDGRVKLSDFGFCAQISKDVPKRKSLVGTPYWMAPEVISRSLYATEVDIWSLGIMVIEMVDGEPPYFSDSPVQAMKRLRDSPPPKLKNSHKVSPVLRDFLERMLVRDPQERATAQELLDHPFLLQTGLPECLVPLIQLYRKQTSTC
Chain of 320 wild-type protein kinases (Homo sapiens, UniProt P48729) (P48729 whole entry): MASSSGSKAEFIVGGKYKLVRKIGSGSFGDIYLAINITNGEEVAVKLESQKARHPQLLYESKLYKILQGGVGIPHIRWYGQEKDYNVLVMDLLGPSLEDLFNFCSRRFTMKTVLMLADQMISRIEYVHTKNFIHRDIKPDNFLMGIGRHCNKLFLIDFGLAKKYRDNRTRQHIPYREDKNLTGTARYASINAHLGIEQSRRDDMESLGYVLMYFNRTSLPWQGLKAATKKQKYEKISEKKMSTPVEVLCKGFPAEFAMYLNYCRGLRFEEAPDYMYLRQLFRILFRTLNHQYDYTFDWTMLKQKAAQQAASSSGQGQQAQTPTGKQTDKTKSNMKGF
Chain of 320 wild-type protein kinases (Homo sapiens, UniProt Q16539) (Q16539 whole entry): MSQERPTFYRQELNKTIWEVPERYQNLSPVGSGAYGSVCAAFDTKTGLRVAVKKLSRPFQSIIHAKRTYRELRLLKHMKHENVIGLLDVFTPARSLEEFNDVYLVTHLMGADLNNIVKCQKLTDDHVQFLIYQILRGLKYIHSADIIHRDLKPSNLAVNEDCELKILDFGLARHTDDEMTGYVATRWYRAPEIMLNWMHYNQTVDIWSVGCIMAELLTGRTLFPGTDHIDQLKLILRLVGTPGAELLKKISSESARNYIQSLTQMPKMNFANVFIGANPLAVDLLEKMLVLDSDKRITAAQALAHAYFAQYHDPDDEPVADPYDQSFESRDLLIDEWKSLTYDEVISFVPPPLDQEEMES
Chain of 320 wild-type protein kinases (Homo sapiens, UniProt O00506) (O00506 whole entry): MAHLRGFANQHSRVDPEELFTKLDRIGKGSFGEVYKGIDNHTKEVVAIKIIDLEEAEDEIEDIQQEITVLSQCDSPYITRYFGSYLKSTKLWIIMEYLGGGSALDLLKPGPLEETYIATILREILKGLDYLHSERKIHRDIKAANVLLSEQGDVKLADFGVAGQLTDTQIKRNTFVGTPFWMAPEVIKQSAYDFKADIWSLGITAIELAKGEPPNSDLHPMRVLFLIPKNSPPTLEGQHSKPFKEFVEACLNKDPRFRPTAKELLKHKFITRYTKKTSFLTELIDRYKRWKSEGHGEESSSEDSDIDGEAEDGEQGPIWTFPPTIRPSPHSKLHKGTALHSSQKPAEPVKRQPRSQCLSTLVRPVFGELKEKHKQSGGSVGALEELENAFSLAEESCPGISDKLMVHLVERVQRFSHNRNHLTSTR
Chain of 320 wild-type protein kinases (Homo sapiens, UniProt P00519) (P00519 whole entry): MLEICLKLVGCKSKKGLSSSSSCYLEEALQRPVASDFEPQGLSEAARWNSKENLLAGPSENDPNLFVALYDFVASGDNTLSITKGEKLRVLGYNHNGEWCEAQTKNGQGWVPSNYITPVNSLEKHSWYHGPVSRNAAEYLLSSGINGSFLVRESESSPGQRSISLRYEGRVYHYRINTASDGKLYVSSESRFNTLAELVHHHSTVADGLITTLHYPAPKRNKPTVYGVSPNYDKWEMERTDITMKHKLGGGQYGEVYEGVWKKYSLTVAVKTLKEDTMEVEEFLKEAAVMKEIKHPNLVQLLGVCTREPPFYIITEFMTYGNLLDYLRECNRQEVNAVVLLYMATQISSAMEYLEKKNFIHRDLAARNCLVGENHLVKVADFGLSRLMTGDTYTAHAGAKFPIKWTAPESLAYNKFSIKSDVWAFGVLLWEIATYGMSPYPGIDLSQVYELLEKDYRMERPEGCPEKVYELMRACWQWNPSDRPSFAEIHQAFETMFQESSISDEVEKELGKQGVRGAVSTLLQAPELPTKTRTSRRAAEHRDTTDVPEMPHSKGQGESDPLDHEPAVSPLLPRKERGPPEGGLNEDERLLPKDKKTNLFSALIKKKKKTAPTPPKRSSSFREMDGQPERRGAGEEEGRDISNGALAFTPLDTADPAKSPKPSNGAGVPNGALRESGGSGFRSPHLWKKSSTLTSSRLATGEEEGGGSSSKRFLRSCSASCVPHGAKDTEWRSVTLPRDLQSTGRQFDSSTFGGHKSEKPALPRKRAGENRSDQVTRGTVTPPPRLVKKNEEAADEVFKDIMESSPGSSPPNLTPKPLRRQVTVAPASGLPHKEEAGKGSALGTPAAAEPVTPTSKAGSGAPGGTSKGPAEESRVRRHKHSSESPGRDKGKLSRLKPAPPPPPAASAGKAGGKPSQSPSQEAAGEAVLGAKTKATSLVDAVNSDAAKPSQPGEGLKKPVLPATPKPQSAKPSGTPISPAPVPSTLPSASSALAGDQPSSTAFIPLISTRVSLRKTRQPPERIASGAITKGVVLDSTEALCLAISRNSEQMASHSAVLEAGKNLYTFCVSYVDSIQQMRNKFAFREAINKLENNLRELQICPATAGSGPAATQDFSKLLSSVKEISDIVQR

| SMILES | Residual activity ([1]; CK1-alpha1, 1.0E-06 M) | Residual activity ([1]; CK1-alpha1, 1.0E-07 M) | Residual activity ([2]; NEK1, 1.0E-06 M) | Residual activity ([2]; NEK1, 1.0E-07 M) | Residual activity ([3]; 1.0E-06 M) | Residual activity ([3]; 1.0E-07 M) | Residual activity, STK25 ([4]; assay conc. 1.0E-06 M) | Residual activity, STK25 ([4]; assay conc. 1.0E-07 M) | Residual activity ([5]; PAK6, 1.0E-06 M) | Residual activity ([5]; PAK6, 1.0E-07 M) | Residual activity ([6]; ABL1, 1.0E-06 M) | Residual activity ([6]; ABL1, 1.0E-07 M) | Residual activity ([7]; 1.0E-06 M) | Residual activity ([7]; 1.0E-07 M) | Residual activity ([8]; DYRK4, 1.0E-06 M) | Residual activity ([8]; DYRK4, 1.0E-07 M) |
| --- | --- | --- | --- | --- | --- | --- | --- | --- | --- | --- | --- | --- | --- | --- | --- | --- |
| C#Cc1cc(Nc2ncnc3cc(I)ccc23)ccc1Cl [Compound 41] | 99 % of control | 104 % of control | 82 % of control | 86 % of control | 89 % of control | 99 % of control | 100 % of control | 95 % of control | 88 % of control | 97 % of control | 72 % of control | 85 % of control | 71 % of control | 103 % of control | 96 % of control | 99 % of control |
| C#Cc1cc(Nc2ncnc3cc(OC)c(OC)cc23)ccc1Cl [Compound 45] | 95 % of control | 98 % of control | 89 % of control | 89 % of control | 88 % of control | 87 % of control | 104 % of control | 111 % of control | 87 % of control | 98 % of control | 59 % of control | 100 % of control | 56 % of control | 96 % of control | 97 % of control | 116 % of control |
